Data published in US7033773B1, “Screening assays for G protein coupled receptor agonists and antagonists” (The General Hospital Corporation, priority 1997, dated 2006).
Read-outs that look alike come from different tables or passages of the source. Where a SMILES comes first, the peptide text is derived from it. [ ]: non-standard residue; d: D form. Nle = CCCC[C@H](N)C(=O)O

What was measured:
[1] = tested on: human PTH/PTHrP receptor; assay: Cytosolic free calcium (fura-2) in LLC-PK1 cells expressing human PTHR; settings: other experiments, hPTHR-expressing LLC-PK1 cells
Method: Cytosolic free calcium was measured in fura 2AM-loaded confluent monolayers of cells.
Cytosolic free calcium was measured by dual fluorescence in cells loaded with the Ca^2+-sensitive intracellular probe fura-2. Cells were seeded onto glass coverslips at a density of 40,000-600,000/cm^2 and incubated for 2 days as described above. Coverslips were washed twice with PBS before loading in phosphate-free Buffer B containing 4 uM of fura-2/AM (Molecular Probes, Eugene, Oreg.) for 30 min at room temperature (22° C.). After washing twice with fura-free Buffer B, the coverslips were mounted in a cuvette containing 2 ml of phosphate-free Buffer B at 37° C. and the emission at 510 nm in response to alternating excitation at 340 and 380 nm was monitored using a ratiometric PTI Deltascan fluorescence spectrometer with excitation and emission bandwidths of 2 nm. After achieving a stable baseline, agonists were introduced by exchange into 2 ml of fresh buffer to which 10-20 ul of concentrated agonist stock (or vehicle alone) had been added. Peptide stocks were prepared in 0.1% trifluoroacetic acid, ionomycin and phorbol esters were dissolved in dimethyl sulfoxide and all other additives were prepared in water. Maximum and minimum fluorescence signals were obtained by exposure to modified buffers containing 1 uM ionomycin plus 20 mM calcium or 2 mM EGTA in the nominal absence of calcium, respectively, and autofluorescence was estimated from signals obtained in the presence of ionomycin plus 2.5 mM MnCl2.

[2] = molecular target: T1, human PTH/PTHrP receptor (Homo sapiens, UniProt Q03431); assay: Urokinase-type plasminogen activator (u-PA) secretion bioassay in LLC-PK1 cells expressing human PTHR; settings: AB45 cells (hPTHR + REV AB dominant-negative PKA inhibitor), 16 hr
T1 sequence (Q03431 27-593): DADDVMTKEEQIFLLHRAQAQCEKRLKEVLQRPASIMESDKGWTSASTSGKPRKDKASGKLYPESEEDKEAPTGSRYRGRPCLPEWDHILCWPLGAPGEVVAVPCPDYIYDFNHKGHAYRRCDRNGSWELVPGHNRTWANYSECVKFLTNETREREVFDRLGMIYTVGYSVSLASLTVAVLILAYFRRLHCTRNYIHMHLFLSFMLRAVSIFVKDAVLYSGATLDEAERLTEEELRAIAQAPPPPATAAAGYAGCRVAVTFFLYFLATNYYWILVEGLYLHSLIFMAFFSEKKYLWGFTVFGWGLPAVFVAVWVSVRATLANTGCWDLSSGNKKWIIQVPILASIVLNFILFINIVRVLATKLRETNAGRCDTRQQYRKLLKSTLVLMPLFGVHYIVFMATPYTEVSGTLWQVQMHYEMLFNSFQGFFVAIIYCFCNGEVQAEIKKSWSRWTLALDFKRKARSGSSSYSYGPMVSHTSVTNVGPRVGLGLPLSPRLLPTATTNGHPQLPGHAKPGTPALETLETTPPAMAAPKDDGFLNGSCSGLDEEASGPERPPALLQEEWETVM
Method: Cells were seeded into 96-well plates at a density of 6×10^4 cells/well and used the following day. The cells were washed once with 0.2 ml and then refed with 0.1 ml of prewarmed DMEM containing 0.05% BSA. After adding each stimulator, plates were returned to the incubator at 37° C. for 16 h. Conditioned medium (5 ul) then was transferred from each well to a clean microplate. […] Activity was expressed in Ploug units/well, using purified human urokinase (Calbiochem) as a standard.
Cells were incubated with the indicated peptides (1000 nM) for 16 hr before measurement of secreted u-PA present in the medium, which was expressed as a percentage of the activity measured in vehicle-treated controls. Values shown are means±SEM of triplicate determinations.

[3] = molecular target: T1, human PTH/PTHrP receptor; assay: Competitive radioligand (Scatchard) binding to human PTH/PTHrP receptors stably expressed in LLC-PK1 cells; design: transfected with a full-length human PTH/PTHrP receptor cDNA; expressed in transfected cells; settings: Scatchard analysis, read-out: Apparent Kd
Method: FIGS. 1A-1B and 1C-1D. Competitive radioligand binding to human PTH/PTHrp receptors stably expressed in LLC-PK1 cells. LLC-PK1 cells stably expressing (FIGS. 1A-1B) 950,000 receptors/cell (HKRK B7) or (FIGS. 1C-1D) 280,000 receptors/cell (HKRK B28) were incubated with ^125I-[Nle^8,18,Tyr^34]bPTH(1-34) in binding buffer for 6 hr at 15° C. in the presence or absence of increasing concentrations of nonradioactive ligand. Scatchard plots are shown in the insets. Each point represents the mean± of triplicate determinations. Total radioligand bound ranged from 15,000-30,000 cpm/well, and nonspecific binding was 2-5% of total binding.
(§1) In brief, the cells were seeded into 24-well plates at a density of 2.5×10^5 cells/well and cultured for a further 2 days before study. Cell layers were rinsed with ice-cold Buffer A [50 mM Tris-HCl (pH 7.7), 100 mM NaCl, 2 mM CaCl2, 5 mM KCl, 0.5% FBS, and 5% heat-inactivated horse serum] and then incubated with ^125I-labeled [Nle^8,18, Tyr^34]bovine (b) PTH(1-34) (1×10^5 cpm/well), with or without unlabeled peptide, in 0.5 ml of Buffer A for 6 h in the cold room (2-8° C.). […] All reagents, unless otherwise specified, were obtained from Sigma (St. Louis, Mo.), and all isotopes were purchased from Dupont-New England Nuclear (Boston, Mass.).
Radioligand competition assays and Scatchard analyses for two representative cell lines, HKRK B7 and HKRK B28, which express 950,000 and 280,000 hPTHRs per cell, respectively, are shown in FIGS. 1A-1D. […] In each case, the Scatchard analysis was linear, consistent with a single class of high affinity binding sites. The subsequent example described below was conducted with two cell lines, which were chosen as representative of those expressing relatively high (HKRK B7) and low (HKRK B28) densities of hPTHRs, respectively.

[4] = molecular target: T2, rat PTHR (Rattus norvegicus, UniProt P25961); assay: Competitive radioligand (Scatchard) binding to rat PTHRs expressed in LLC-PK1 cells; settings: Scatchard analysis, read-out: Apparent Kd
T2 construct: expressed in transfected cells; host or cells: LLC-PK1 porcine renal epithelial cells (EW5; also EW29, AR-C38, AR-B44)
T2 sequence (P25961 27-591): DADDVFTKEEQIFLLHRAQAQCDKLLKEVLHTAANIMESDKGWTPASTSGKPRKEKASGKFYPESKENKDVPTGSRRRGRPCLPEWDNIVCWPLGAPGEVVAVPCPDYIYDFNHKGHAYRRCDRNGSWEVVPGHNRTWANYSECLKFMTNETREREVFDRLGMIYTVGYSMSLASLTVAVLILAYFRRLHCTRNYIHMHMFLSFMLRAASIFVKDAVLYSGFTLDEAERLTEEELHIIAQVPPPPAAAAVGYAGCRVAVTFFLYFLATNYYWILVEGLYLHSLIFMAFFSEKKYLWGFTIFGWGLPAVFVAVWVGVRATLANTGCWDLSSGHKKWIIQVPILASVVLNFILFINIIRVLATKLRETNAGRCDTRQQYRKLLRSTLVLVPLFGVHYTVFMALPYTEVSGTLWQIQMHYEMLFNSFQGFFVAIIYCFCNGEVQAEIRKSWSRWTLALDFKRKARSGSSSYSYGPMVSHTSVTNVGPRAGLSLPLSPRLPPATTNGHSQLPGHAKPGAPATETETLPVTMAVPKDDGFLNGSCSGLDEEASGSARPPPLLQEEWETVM
Method: as §1

Kd ([3]; HKRH C58 cells, 1030 x10^3 receptors/cell)	Kd ([3]; HKRK B5 cells, 840 x10^3 receptors/cell)	Kd ([3]; HKRK B7 cells, 950 x10^3 receptors/cell)	Kd ([3]; HKRK B28 cells, 280 x10^3 receptors/cell)	Kd ([3]; HKRK B54 cells, 1020 x10^3 receptors/cell)	Kd ([3]; HKRK B57 cells, 900 x10^3 receptors/cell)	Kd ([3]; HKRK B64 cells, 90 x10^3 receptors/cell)	Kd ([3]; HKRK C27 cells, 340 x10^3 receptors/cell)	Kd ([3]; HKRK C30 cells, 600 x10^3 receptors/cell)	Kd ([3]; HKRK C53 cells, 120 x10^3 receptors/cell)	Kd ([3]; HKRK C101 cells, 330 x10^3 receptors/cell)	Kd ([4]; EW5 cells, 320 x10^3 rat receptors/cell)	Kd ([4]; EW29 cells, 190 x10^3 rat receptors/cell)	Compound	calcium responses to PKA/PKC activators [1]	u-PA response in cAMP-resistant cells (in words) [2]
													CCCCCCCCCCCCCC(=O)O[C@@H]1[C@@H](C)[C@@]2(O)[C@@H](C=C(CO)C[C@]3(O)C(=O)C(C)=C[C@@H]23)[C@H]2C(C)(C)[C@]12OC(C)=O [TPA]	failed to elicit calcium responses	well-maintained
3.6 nM	3.9 nM	4.5 nM	1.8 nM	6.4 nM	5.6 nM	1.3 nM	2.2 nM	2.8 nM	1.2 nM	1.6 nM	2.3 nM	2.5 nM	CCCC[C@H](NC(=O)[C@H](CO)NC(=O)[C@H](CO)NC(=O)[C@H](CC(C)C)NC(=O)[C@H](Cc1c[nH]cn1)NC(=O)[C@H](CCCCN)NC(=O)CNC(=O)[C@H](CC(C)C)NC(=O)[C@H](CC(N)=O)NC(=O)[C@H](Cc1c[nH]cn1)NC(=O)[C@H](CCCC)NC(=O)[C@H](Cc1ccccc1)NC(=O)[C@H](CCC(N)=O)NC(=O)[C@@H](NC(=O)[C@H](CCC(=O)O)NC(=O)[C@H](CO)NC(=O)[C@@H](NC(=O)[C@H](C)N)C(C)C)[C@@H](C)CC)C(=O)N[C@@H](CCC(=O)O)C(=O)N[C@@H](CCCNC(=N)N)C(=O)N[C@H](C(=O)N[C@@H](CCC(=O)O)C(=O)N[C@@H](Cc1c[nH]c2ccccc12)C(=O)N[C@@H](CC(C)C)C(=O)N[C@@H](CCCNC(=N)N)C(=O)N[C@@H](CCCCN)C(=O)N[C@@H](CCCCN)C(=O)N[C@@H](CC(C)C)C(=O)N[C@@H](CCC(N)=O)C(=O)N[C@@H](CC(=O)O)C(=O)N[C@H](C(=O)N[C@@H](Cc1c[nH]cn1)C(=O)N[C@@H](CC(N)=O)C(=O)N[C@@H](Cc1ccc(O)cc1)C(N)=O)C(C)C)C(C)C [[Nle^8,18, Tyr^34]bPTH(1-34), [Nle^8,18, Tyr^34]bovine (b) PTH(1-34)] (H-AVSEIQF[Nle]HNLGKHLSS[Nle]ERVEWLRKKLQDVHNY-NH2; N-terminus assumed)		
